Legend:
mature murine skin = assay: Histology of punch biopsies of treated murine skin (epidermal thickening, proliferation, keratinocyte differentiation); assay type: in vivo, mice; conditions: for basal cell turn over / formation of normally-functioning supra basal granular keratinocytes: applied to the skin of mice, all trans retinoic acid 0.1%, all trans retinol 1.0%
Text: Photomicrographs of murine tissue samples treated according to methods of the present invention are presented the figures. Differing amounts of inter-laminar keratinocyte differentiation were observed. In some cases, there is intra-laminar disruption, in which stratum corneum (SC) and granular layer (GL) are separated, indicating little granular keratinocyte formation and/or suppression of one or both of granular keratinocyte extracellular desmosomal proteins and/or reduced production of laminar granules (proteases, lipids). This was not considered an artifact of the micro-tome blade.
More particularly, histological observations, including degree of “keratinocyte differentiation” are described by reference to photomicrographs of retired breeder mice obtained from Charles River Laboratories, Inc. (Wilmington, Mass.). An area of approximately one square inch was shaved. Test compositions (e.g., control=carrier vehicle with ingredient known to be irritating; test=same carrier and known irritant from control+phospholipid) were administered in accordance with methods of the inventions. Punch biopsies of full thickness skin and subcutaneous fat were taken as follows: skin was swabbed with an antiseptic and injected with a local anaesthetic; an incision was made, and a tissue specimen was removed and preserved in 10% neutral buffered formalin at a volume of approximately ten times that of the tissue). Excision sites were sutured. The preserved tissues samples were sent to Louisiana State University, School of Veterinary Medicine for processing and analysis. More particularly, tissue was processed in graded alcohol [70% (v/v) ethanol, 90% (v/v) ethanol, absolute ethanol] followed by graded xylene [[…], absolute xylene]. Next the processed tissue was placed in blocks/molds filled with paraffin wax liquid, in an orientation with the epidermis on top, with ice on top to hold the tissue in place. Wax blocks were cooled in ice and sectioned at a thickness of 5-15 μm using a microtome with disposable blade (Leica Microtome Model RM2255). Microtomed sections were placed on adhesive slides, incubated at 37° C. for 24 hours (i.e., on slide racks), and then stored in slide containers at room temperature until H&E staining is performed to visualize histological microstructures. All histological samples were micro photographed at 400× under normal light with standard digital equipment. These photos were transferred to PHOTOSHOP® computer imaging software from Adobe Systems Pvt. Ltd., in which measurements of epidermal thickness, SC thickness, granulation, layering were determined.

CSF2 = assay: DNA microarray assay, expression of proliferative/growth-factor related genes; assay type: cell-based; conditions: DMSO delivered retinol at 5 ppm; retinyl linoleate and lysophospholipid concentrate at a ratio of 1:0.4
HBEGF = assay: as above; assay type: cell-based; conditions: DMSO delivered retinol at 5 ppm; retinyl linoleate and lysophospholipid concentrate at a ratio of 1:0.4
TGF beta 1 = assay: as above; assay type: cell-based; conditions: DMSO delivered retinol at 5 ppm; retinyl linoleate and lysophospholipid concentrate at a ratio of 1:0.4
TGF alpha = assay: as above; assay type: cell-based; conditions: DMSO delivered retinol at 5 ppm; retinyl linoleate and lysophospholipid concentrate at a ratio of 1:0.4
FGF = assay: as above; assay type: cell-based; conditions: DMSO delivered retinol at 5 ppm; retinyl linoleate and lysophospholipid concentrate at a ratio of 1:0.4
[1] = 1% in a bioemulsion applied once daily over 2 consecutive days
[2] = bioemulsion applied once daily over 4 consecutive days (retinyl phosphate 1%)
[3] = 1% in a bioemulsion applied once daily over three consecutive days
[4] = FIG. 7, bioemulsion with 1% retinyl linoleate

How did the differentiation (mature murine skin; [1]) turn out when Glyceryl diretinoate was run?
Its differentiation is “good”.

What about the proliferation (mature murine skin; [1]) of the same compound?
Its proliferation is “good”.

With CC(C=CC1=C(C)CCCC1(C)C)=CC=CC(C)=CCOC(=O)CCC(=O)OCC=C(C)C=CC=C(C)C=CC1=C(C)CCCC1(C)C [diretinyl succinate] as the compound, how does the keratinocyte differentiation (mature murine skin; [2]) read?
The keratinocyte differentiation was “de minimis”.

What about the proliferation (mature murine skin; [2]) of the same compound?
The proliferation was “De minimis”.

With CC1=C(/C=C/C(C)=C/C=C/C(C)=C/C(=O)O)C(C)(C)CCC1 [all trans retinoic acid, Retinoic acid] as the compound, how does the “basal cell turn over” value (mature murine skin) read?
Its value is “stimulates”.

And the “formation of normally-functioning supra basal granular keratinocytes” value (mature murine skin)?
Its value is “inhibits or suppresses”.

What does the source list for CC1=C(/C=C/C(C)=C\C=C\C(C)=C\COP(=O)(O)O)C(C)(C)CCC1 [retinyl phosphate]?
keratinocyte differentiation (mature murine skin; [2]): de minimis; proliferation (mature murine skin; [2]): De minimis

Which differentiation (mature murine skin; [1]) does the source give for “Monoglyceryl retinoate [glyceryl mono retinoate]” here?
The differentiation was “excellent”.

And the proliferation (mature murine skin; [1])?
Its proliferation is “excellent”.

What does the source list for acetyl-n-phenylalanine retinoate?
differentiation (mature murine skin; [3]): good; proliferation (mature murine skin; [3]): good

Which SC density (mature murine skin; [4]) does the source give for CCCCC/C=C\C/C=C\CCCCCCCC(=O)OC/C=C(C)/C=C/C=C(C)/C=C/C1=C(C)CCCC1(C)C [retinyl linoleate, Retinyl linoleate] here?
Its SC density is “Increased”.

What about the differentiation (mature murine skin; [4]) of the same compound?
Its differentiation is “without significant differentiation”.

What about the proliferation (mature murine skin; [4]) of the same compound?
Its proliferation is “Increased”.

Which results are given for CC1=C(/C=C/C(C)=C/C=C/C(C)=C/CO)C(C)(C)CCC1 [DMSO Delivered Retinol, Retinol]?
CSF2 level of expression (change) (CSF2): −25%; HBEGF level of expression (change) (HBEGF): −50%; TGF beta 1 level of expression (change) (TGF beta 1): −50%; TGF alpha level of expression (change) (TGF alpha): +200%; basal cell turn over (mature murine skin): stimulates; formation of normally-functioning supra basal granular keratinocytes (mature murine skin): inhibits or suppresses; FGF level of expression (change) (FGF): −50%

Source: patent US11173103B1, “Retinoids and epidermal stimulants” (Owen Biosciences, Inc., priority 2017, dated 2021)
